What all share (experiment): DSF 100 kinase selectivity screen;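 note: compound tested at 20 µM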
Holding throughout (format): binding

For experiment [1], the target named is T1, ~100 representative kinases (Homo sapiens, UniProt Q2M2I8).
T1 construct: Recombinant protein kinase domains with a concentration of 2 μM
The conditions noted are these: Protein AAK1; average of three replicates. The method, boiled down:
(§1)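 Each kinase domain, at 2 μM, is mixed with 20 μM test compound and SYPRO Orange in Hepes (20 mM, pH 7.5) with 500 mM NaCl. Temperature is then raised at 3°C/min and fluorescence-monitored unfolding yields the melting temperature change, ΔTm in degrees Celsius.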

For experiment [2], the target named is T2, ~100 representative kinases (Homo sapiens, UniProt P49759).
T2 construct: Recombinant protein kinase domains with a concentration of 2 μM
The settings on record: Protein CLK1; average of three replicates. An outline of the steps: as §1

For experiment [3], the target named is T3, ~100 representative kinases (Homo sapiens, UniProt Q9UKI8).
T3 construct: Recombinant protein kinase domains with a concentration of 2 μM
T3 sequence (Q9UKI8 1-766): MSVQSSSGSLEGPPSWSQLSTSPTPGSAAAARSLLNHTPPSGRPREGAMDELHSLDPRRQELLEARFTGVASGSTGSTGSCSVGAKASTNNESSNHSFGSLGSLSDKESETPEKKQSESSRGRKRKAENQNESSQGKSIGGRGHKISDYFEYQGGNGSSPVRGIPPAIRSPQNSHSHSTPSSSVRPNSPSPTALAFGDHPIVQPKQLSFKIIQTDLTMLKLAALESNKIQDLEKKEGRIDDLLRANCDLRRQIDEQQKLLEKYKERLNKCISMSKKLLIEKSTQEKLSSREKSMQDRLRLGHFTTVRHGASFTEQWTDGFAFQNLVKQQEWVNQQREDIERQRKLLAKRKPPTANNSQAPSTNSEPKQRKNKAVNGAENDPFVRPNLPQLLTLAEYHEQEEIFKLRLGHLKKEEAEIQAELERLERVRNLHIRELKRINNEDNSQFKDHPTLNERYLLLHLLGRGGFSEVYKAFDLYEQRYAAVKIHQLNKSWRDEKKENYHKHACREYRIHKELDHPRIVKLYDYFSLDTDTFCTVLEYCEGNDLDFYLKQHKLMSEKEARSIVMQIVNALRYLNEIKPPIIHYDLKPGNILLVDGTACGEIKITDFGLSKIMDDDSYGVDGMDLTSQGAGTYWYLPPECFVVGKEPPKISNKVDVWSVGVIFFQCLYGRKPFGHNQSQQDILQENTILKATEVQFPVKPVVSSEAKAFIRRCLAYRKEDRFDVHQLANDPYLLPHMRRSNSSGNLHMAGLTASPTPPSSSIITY
The conditions noted are these: Protein TLK1; DSF; average of three replicates. An outline of the steps: as §1

Experiment [4] addresses T4, ~100 representative kinases (Homo sapiens, UniProt P53355).
T4 construct: Recombinant protein kinase domains with a concentration of 2 μM
The conditions noted are these: Protein DAPK1; average of three replicates. The method, boiled down:
as §1

Experiment [5] addresses T5, ~100 representative kinases (Homo sapiens, UniProt Q96RR4).
T5 construct: Recombinant protein kinase domains with a concentration of 2 μM
The conditions noted are these: Protein CAMKK2; average of three replicates. An outline of the steps:
as §1

The target in experiment [6] is T6, ~100 representative kinases (Homo sapiens, UniProt Q13873).
T6 construct: Recombinant protein kinase domains with a concentration of 2 μM
T6 sequence (Q13873 27-1038): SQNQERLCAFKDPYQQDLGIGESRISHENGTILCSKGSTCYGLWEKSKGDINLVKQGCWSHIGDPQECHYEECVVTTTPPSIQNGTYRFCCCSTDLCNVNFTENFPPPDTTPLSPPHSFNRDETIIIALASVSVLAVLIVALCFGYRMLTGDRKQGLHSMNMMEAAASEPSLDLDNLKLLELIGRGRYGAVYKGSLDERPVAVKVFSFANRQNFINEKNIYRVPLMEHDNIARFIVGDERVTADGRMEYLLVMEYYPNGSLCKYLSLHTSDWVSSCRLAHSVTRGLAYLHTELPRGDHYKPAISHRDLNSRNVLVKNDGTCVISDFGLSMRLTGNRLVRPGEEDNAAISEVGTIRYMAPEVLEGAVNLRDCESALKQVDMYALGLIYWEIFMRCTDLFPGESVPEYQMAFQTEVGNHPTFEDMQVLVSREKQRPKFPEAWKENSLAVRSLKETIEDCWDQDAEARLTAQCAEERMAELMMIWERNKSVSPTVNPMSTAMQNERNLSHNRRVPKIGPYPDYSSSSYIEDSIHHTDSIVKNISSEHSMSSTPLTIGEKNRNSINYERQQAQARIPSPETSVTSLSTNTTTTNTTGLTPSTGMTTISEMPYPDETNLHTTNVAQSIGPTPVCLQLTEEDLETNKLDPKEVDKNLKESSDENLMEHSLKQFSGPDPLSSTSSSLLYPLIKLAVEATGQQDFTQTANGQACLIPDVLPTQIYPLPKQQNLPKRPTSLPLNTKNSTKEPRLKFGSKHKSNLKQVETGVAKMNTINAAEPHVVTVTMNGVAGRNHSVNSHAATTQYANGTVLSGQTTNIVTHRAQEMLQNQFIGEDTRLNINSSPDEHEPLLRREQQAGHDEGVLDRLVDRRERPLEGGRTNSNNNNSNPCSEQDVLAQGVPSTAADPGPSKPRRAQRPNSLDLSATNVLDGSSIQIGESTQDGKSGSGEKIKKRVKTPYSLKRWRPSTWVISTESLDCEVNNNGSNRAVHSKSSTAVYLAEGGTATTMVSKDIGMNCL
The settings on record: Protein BMPR2; average of three replicates. An outline of the steps: as §1

Experiment [7] deals with T7, ~100 representative kinases (Homo sapiens, UniProt O43293).
T7 construct: Recombinant protein kinase domains with a concentration of 2 μM
The settings on record: Protein DAPK3; average of three replicates. The method, boiled down:
as §1

Experiment [8] deals with T8, ~100 representative kinases (Homo sapiens, UniProt P15735).
T8 construct: Recombinant protein kinase domains with a concentration of 2 μM
T8 sequence (P15735 1-406): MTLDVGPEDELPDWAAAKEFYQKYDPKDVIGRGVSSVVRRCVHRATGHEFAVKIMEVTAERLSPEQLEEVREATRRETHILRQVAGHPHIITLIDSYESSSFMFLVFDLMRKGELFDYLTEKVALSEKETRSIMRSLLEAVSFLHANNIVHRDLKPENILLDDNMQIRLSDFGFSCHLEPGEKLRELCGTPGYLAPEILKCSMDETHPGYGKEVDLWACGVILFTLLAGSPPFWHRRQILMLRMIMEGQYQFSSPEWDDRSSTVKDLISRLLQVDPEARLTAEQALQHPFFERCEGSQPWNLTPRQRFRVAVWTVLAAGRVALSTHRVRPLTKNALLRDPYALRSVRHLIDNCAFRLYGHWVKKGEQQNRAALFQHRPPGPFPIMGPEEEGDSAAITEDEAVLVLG
The settings on record: protein PHKG2; average of three replicates. An outline of the steps:
as §1

We go through twelve molecules from paper PMC12136037, “Type II kinase inhibitors that target Parkinson’s disease–associated LRRK2” (Science Advances, 2025).

T2 sequence (P49759 whole entry, the tested form may be a part): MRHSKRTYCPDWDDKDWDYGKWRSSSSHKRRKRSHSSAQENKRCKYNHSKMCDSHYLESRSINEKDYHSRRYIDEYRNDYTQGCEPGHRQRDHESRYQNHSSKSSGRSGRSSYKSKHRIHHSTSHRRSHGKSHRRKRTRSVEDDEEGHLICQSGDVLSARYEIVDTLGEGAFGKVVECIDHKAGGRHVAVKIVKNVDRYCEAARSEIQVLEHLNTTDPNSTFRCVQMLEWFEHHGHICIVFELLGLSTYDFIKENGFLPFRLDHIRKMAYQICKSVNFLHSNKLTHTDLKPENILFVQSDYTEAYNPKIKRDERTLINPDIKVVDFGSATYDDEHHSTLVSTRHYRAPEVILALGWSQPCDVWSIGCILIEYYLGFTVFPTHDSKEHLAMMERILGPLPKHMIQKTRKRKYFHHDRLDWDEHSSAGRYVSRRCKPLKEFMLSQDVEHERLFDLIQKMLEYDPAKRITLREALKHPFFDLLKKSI
T4 sequence (P53355 whole entry, the tested form may be a part): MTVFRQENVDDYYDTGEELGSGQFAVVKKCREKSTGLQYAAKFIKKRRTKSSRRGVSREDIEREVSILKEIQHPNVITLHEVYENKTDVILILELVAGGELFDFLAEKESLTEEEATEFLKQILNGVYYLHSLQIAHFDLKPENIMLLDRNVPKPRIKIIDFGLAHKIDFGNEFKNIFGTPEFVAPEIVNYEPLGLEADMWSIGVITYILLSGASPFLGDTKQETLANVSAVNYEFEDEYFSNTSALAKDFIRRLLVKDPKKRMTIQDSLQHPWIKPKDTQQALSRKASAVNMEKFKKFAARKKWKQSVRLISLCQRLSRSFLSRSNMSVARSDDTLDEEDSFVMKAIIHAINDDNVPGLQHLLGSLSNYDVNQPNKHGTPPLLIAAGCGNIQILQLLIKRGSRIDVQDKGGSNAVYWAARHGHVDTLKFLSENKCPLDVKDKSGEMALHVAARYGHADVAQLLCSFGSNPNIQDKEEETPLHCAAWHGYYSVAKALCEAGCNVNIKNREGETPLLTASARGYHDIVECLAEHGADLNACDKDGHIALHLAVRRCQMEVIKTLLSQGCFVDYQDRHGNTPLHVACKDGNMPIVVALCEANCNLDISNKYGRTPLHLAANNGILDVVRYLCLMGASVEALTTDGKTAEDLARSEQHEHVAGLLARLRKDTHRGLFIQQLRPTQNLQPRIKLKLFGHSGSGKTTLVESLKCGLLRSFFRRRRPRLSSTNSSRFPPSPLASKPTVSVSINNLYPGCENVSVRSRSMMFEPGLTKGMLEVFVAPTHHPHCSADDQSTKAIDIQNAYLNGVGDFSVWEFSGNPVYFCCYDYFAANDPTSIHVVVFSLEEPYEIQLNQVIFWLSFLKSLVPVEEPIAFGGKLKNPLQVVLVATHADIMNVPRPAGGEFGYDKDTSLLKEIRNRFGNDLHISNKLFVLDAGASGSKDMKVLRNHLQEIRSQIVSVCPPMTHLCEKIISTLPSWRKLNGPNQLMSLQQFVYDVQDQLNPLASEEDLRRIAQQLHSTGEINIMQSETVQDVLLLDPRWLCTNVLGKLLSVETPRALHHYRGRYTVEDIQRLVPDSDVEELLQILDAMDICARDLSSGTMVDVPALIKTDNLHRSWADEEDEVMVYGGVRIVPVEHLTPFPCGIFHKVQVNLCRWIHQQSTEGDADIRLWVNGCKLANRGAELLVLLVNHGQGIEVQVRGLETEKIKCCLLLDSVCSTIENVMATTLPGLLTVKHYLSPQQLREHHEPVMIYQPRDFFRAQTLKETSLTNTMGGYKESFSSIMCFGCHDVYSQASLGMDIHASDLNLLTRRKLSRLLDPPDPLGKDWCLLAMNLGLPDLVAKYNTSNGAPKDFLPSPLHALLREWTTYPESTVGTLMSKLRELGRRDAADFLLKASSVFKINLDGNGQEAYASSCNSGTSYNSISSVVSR
T5 sequence (Q96RR4 whole entry, the tested form may be a part): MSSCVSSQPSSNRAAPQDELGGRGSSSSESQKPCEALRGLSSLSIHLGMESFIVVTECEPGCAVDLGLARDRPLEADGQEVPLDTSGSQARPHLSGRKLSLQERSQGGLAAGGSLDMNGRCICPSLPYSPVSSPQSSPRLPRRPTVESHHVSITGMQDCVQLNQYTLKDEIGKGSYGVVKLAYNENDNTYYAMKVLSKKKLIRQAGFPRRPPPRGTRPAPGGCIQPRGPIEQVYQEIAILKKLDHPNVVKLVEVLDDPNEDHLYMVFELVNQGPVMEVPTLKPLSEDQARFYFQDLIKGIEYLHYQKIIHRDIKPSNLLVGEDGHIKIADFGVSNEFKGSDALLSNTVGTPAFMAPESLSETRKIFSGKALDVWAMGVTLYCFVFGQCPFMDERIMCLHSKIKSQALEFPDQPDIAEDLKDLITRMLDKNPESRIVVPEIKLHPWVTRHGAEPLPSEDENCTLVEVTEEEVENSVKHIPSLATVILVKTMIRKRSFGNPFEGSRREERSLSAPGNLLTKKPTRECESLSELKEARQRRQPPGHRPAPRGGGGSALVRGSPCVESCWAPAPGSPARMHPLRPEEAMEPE
T7 sequence (O43293 whole entry, the tested form may be a part): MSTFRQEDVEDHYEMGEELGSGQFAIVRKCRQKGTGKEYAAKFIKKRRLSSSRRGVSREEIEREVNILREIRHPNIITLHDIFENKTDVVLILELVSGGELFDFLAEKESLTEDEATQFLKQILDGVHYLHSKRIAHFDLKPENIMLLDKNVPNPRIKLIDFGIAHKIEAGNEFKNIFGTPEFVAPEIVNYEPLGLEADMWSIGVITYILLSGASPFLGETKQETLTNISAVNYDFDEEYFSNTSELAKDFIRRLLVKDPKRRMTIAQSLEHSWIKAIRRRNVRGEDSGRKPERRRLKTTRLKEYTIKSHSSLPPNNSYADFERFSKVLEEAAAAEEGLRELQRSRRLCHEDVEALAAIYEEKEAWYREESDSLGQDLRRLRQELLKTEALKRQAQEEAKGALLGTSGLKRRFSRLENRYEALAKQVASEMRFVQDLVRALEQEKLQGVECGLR
T1 sequence (Q2M2I8 whole entry, the tested form may be a part): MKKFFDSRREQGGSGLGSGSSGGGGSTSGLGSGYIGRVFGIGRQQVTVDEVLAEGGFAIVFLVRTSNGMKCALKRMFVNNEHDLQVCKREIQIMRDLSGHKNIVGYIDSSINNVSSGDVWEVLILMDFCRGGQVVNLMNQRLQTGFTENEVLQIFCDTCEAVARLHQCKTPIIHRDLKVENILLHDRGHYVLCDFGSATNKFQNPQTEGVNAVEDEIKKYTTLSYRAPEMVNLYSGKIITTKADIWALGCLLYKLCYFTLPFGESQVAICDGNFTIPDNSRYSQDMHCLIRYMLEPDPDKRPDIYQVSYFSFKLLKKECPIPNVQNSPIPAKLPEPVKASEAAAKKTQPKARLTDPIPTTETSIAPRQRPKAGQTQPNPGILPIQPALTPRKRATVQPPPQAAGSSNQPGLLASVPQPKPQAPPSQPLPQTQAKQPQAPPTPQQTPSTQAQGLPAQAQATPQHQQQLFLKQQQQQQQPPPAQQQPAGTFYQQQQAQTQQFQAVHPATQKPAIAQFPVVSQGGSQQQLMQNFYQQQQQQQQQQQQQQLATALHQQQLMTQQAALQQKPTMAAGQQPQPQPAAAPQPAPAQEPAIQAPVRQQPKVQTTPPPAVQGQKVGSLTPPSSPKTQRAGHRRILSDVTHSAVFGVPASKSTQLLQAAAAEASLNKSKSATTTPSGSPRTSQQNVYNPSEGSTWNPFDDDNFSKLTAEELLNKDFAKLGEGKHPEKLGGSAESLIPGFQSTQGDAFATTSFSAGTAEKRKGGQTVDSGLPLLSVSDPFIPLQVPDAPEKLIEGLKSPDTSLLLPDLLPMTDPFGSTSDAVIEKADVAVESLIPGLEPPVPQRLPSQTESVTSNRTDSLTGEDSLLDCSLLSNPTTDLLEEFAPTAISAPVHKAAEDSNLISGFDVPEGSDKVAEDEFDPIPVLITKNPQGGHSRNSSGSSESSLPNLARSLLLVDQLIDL

Turning to `O=C(Nc1ccccc1)C1(C(=O)Nc2cccc(-c3c[nH]c4ncnc(N5CCOCC5)c34)c2)CC1` [Compound 12], the dTm in experiment [1] was determined as 3.79 K; in experiment [2] it was 9.52 K; in experiment [3], 0.18 K; in experiment [4] it was 0.18 K; in experiment [5], 5.09 K; in experiment [6], 1.02 K. Further, the dTm in experiment [7] is 6.20 K; in experiment [8], 1.25 K.

Take `O=C(Nc1ccc(Cl)cc1)C1(C(=O)Nc2cccc(-c3c[nH]c4ncnc(N5CCOCC5)c34)c2)CC1` [Compound 13]: the dTm in experiment [1] was determined as 3.55 K; in experiment [2] it was 9.39 K; in experiment [3], 0.97 K; in experiment [4], 0.12 K; in experiment [5] it was 7.83 K; in experiment [6], 1.26 K. The dTm in experiment [7] is on record as 8.55 K; in experiment [8], 3.23 K.

Consider `Cc1ccc(NC(=O)C2(C(=O)Nc3cccc(-c4c[nH]c5ncnc(N6CCOCC6)c45)c3)CC2)cc1` [Compound 14], for which the dTm is on record as 2.28 K in experiment [1]; 6.84 K in experiment [2]; -0.87 K in experiment [3]; -0.92 K in experiment [4]; 4.94 K in experiment [5]; 1.10 K in experiment [6]. The dTm came to 4.16 K in experiment [7] and 0.65 K in experiment [8].

Take `CCc1ccc(NC(=O)C2(C(=O)Nc3cccc(-c4c[nH]c5ncnc(N6CCOCC6)c45)c3)CC2)cc1` [Compound 15]: the dTm in experiment [1] is recorded as 2.03 K; in experiment [2], 6.65 K; in experiment [3], -0.49 K; in experiment [4] it was -0.75 K; in experiment [5] it was 5.52 K; in experiment [6], 0.80 K. The dTm is recorded as 3.77 K in experiment [7] and 0.76 K in experiment [8].

Take `COc1ccc(NC(=O)C2(C(=O)Nc3cccc(-c4c[nH]c5ncnc(N6CCOCC6)c45)c3)CC2)cc1` [Compound 16]: the dTm is 1.75 K in experiment [1]; 7.75 K in experiment [2]; -1.11 K in experiment [3]; -0.99 K in experiment [4]; 1.74 K in experiment [5]; 0.48 K in experiment [6]. The dTm in experiment [7] was 1.15 K; in experiment [8], -0.08 K.

On to `O=C(Nc1cccc(-c2c[nH]c3ncnc(N4CCOCC4)c23)c1)C1(C(=O)Nc2ccc(F)c(F)c2)CC1` [Compound 17], for which the dTm in experiment [1] is given as 3.45 K; in experiment [2], 8.95 K; in experiment [3], -0.35 K; in experiment [4] it was -0.77 K; in experiment [5], 6.90 K; in experiment [6], 0.95 K. In addition, the figures for the dTm in experiment [7] and in experiment [8] were 8.69 K and 2.57 K, respectively.

Consider `O=C(Nc1cccc(-c2c[nH]c3ncnc(N4CCOCC4)c23)c1)C1(C(=O)Nc2ccc(F)c(Cl)c2)CC1` [Compound 18], for which the dTm in experiment [1] is 4.45 K; in experiment [2], 9.40 K; in experiment [3], 0.17 K; in experiment [4], -0.23 K; in experiment [5], 9.58 K; in experiment [6] it was 1.13 K. Further, the dTm in experiment [7] is given as 10.62 K; in experiment [8] it was 3.01 K.

On to `O=C(Nc1cccc(-c2c[nH]c3ncnc(N4CCOCC4)c23)c1)C1(C(=O)Nc2ccc(F)c(Br)c2)CC1` [Compound 19], for which the dTm in experiment [1] is reported as 3.23 K; in experiment [2] it was 8.69 K; in experiment [3], 2.03 K; in experiment [4] it was -1.32 K; in experiment [5], 9.18 K; in experiment [6], -0.62 K. Besides, the dTm is 8.34 K in experiment [7] and 1.52 K in experiment [8].

As for `Cc1cc(NC(=O)C2(C(=O)Nc3cccc(-c4c[nH]c5ncnc(N6CCOCC6)c45)c3)CC2)ccc1F` [Compound 20], the dTm was 5.13 K in experiment [1]; 11.22 K in experiment [2]; -0.17 K in experiment [3]; 0.0134 K in experiment [4]; 10.45 K in experiment [5]; 1.32 K in experiment [6]. Also, the dTm in experiment [7] was determined as 10.09 K; in experiment [8], 2.79 K.

Take `COc1cc(NC(=O)C2(C(=O)Nc3cccc(-c4c[nH]c5ncnc(N6CCOCC6)c45)c3)CC2)ccc1F` [Compound 21]: the dTm in experiment [1] is on record as 4.69 K; in experiment [2] it was 10.73 K; in experiment [3], -0.77 K; in experiment [4], -1.16 K; in experiment [5], 8.27 K; in experiment [6], 0.78 K. The dTm worked out at 7.62 K in experiment [7] and 0.25 K in experiment [8].

With `CC(C)(C)c1cccc(NC(=O)C2(C(=O)Nc3cccc(-c4c[nH]c5ncnc(N6CCOCC6)c45)c3)CC2)c1` [Compound 22], the dTm in experiment [1] is given as -0.91 K; in experiment [2], 7.58 K; in experiment [3], 0.35 K; in experiment [4], -2.58 K; in experiment [5], 9.68 K; in experiment [6], 0.10 K. For the same molecule, the dTm in experiment [7] is given as 3.52 K; in experiment [8] it was -0.10 K.

In the case of `O=C(Nc1cccc(-c2c[nH]c3ncnc(N4CCOCC4)c23)c1)C1(C(=O)Nc2ccc(F)cc2F)CC1` [Compound 23], the dTm in experiment [1] was 2.93 K; in experiment [2] it was 7.21 K; in experiment [3], -0.64 K; in experiment [4], -1.28 K; in experiment [5], 5.31 K; in experiment [6], 0.82 K. In addition, the dTm stood at 3.66 K in experiment [7] and 0.21 K in experiment [8].
